# Patent US12357570B2, “Chemoembolization agents” (BRUIN BIOSCIENCES, INC., priority 2017, dated 2025)
# Entries after “also recorded” stand apart in the source; their conditions may differ.
# How the values were obtained:
# [1] = Loading of liposome-encapsulated drug on DC Beads (supernatant HPLC/MS); assay type: physicochemical; conditions: for loading on DC Beads: cationic liposomes DOTAP/DOPC; for amount loaded: start of elution, liposomal drug on DC Beads
# Procedure: (§1) This was accomplished via a two-step process: 1) Sorafenib was made water-soluble by encapsulation into an encapsulating agent that is positively charged on its outer surface (cationic liposomes) and 2) association of a plurality of the loaded encapsulating agents so obtained onto microspheres (DC Beads®). In order to accomplish this, Sorafenib para-toluene sulfonate salt (9.1 mg), DOTAP (1,2-dioleoyl-3-trimethylammonium-propane chloride salt, 100 mg) and DOPC (1,2-dioleoyl-sn-glycero-3-phosphocholine, 101.1 mg) were dissolved in ethanol (0.5 mL) and this solution was added dropwise to a 10% trehalose solution (9 mL) under stirring. The resulting viscous emulsion was stirred at room temperature for 5 minutes and then filtered through a manual liposomal extruder using a 200 nm polycarbonate membrane. The resulting unilamellar liposomal solution was lyophilized overnight to yield a white solid, which was reconstituted in deionized water (1.82 mL) to yield a final Sorafenib concentration of 5 mg/mL. DC Beads® (2 mL, having about 200,000 beads with an average bead diameter of about 100-300 microns as measured by light scattering) were drained of as much liquid as possible and treated with the liposomal solution. The concentration of Sorafenib in the supernatant was measured over time by HPLC/MS. After approximately 46 hours, equilibrium was reached and loading of Sorafenib appeared to be approximately 52%. It is possible that saturation was reached and that more beads are needed to increase loading. For elution experiments, the liposomal solution with the DC Beads® was passed through a cotton filter, leaving the DC Beads® on the filter. PBS (1.0 M, pH 7.4) warmed to 37° C. was passed over the beads at 4 mL/min for 60 minutes. Four 40 mL vials were collected and analyzed by HPLC/MS/MS to determine the concentration of Sorafenib in each sample. Ten 3 mL vials were collected and analyzed by HPLC/MS/MS to establish the drug elution kinetics for Sorafenib.
# This was accomplished via a two-step process: 1) Regorafenib (4.7229 mg) was made water-soluble by encapsulation into an encapsulating agent that is positively charged on its outer surface (cationic liposomes) and 2) association of a plurality of the loaded encapsulating agents so obtained onto microspheres. In short, Regorafenib (6.9 mg), DOTAP (1,2-dioleoyl-3-trimethylammonium-propane chloride salt, 100 mg) and DOPC (1,2-dioleoyl-sn-glycero-3-phosphocholine, 101.1 mg) were dissolved in ethanol (0.5 mL) and this solution was added dropwise to a 10% trehalose solution (9 mL) under stirring. […] The concentration of Regorafenib in the supernatant was measured over time by HPLC/MS. […] Four 40 mL vials were collected and analyzed by HPLC/MS/MS to determine the concentration of […] in each sample.
# [2] = Elution of liposome-encapsulated drug from DC Beads with PBS pH 7.4 at 37° C.; assay type: physicochemical; conditions: for Remaining drug to be eluted: after Fraction I (solvent-final)
# Procedure: as §1, with “PBS (1.0 M, pH 7.4) warmed to 37° C. was passed over the beads at 4 mL/min for 60 minutes.” left out
# This was accomplished via a two-step process: 1) Regorafenib (4.7229 mg) was made water-soluble by encapsulation into an encapsulating agent that is positively charged on its outer surface (cationic liposomes) and 2) association of a plurality of the loaded encapsulating agents so obtained onto microspheres. In short, Regorafenib (6.9 mg), DOTAP (1,2-dioleoyl-3-trimethylammonium-propane chloride salt, 100 mg) and DOPC (1,2-dioleoyl-sn-glycero-3-phosphocholine, 101.1 mg) were dissolved in ethanol (0.5 mL) and this solution was added dropwise to a 10% trehalose solution (9 mL) under stirring. The resulting viscous emulsion was stirred at room temperature for 5 minutes and then filtered through a manual liposomal extruder using a 200 nm polycarbonate membrane. The resulting unilamellar liposomal solution was lyophilized overnight to yield a white solid, which was reconstituted in deionized water (1.8 mL) to yield a final Regorafenib concentration of 5 mg/mL. DC Beads® (2 mL) were drained of as much liquid as possible and treated with the liposomal solution. The concentration of Regorafenib in the supernatant was measured over time by HPLC/MS. After approximately 92 hours, equilibrium was reached and loading of Regorafenib appeared to be approximately 25%. For elution experiments, the liposomal solution with the DC Beads® was passed through a cotton filter, leaving the DC Beads® on the filter. […] Four 40 mL vials were collected and analyzed by HPLC/MS/MS to determine the concentration of […] in each sample.
# [3] = human, 400 mg twice daily, cited from earlier work
# [4] = cited from earlier work
# [5] = Loading of non-encapsulated drug on DC Beads (residual unloaded drug by HPLC); assay type: physicochemical; conditions: room temperature
# Procedure: A drug-loading solution was prepared by adding sterile water to a vial of doxorubicin hydrochloride powder (Pharmacia & Upjohn, Kalamazoo, MI) to produce a solution of the desired concentration (for the loading experiment 25 mg Doxorubicin salt was dissolved in 5 mL water. 0.043 mmol/5 mL=8.6 mM solution). 1 mL volume of beads was aspirated via syringe, purged of as much liquid as possible, then an aqueous solution Doxorubicin (5 mL, 5 mg/mL concentration) aspirated and mixed with beads. The mixture was dispensed into a sealed vial and left to load at room temperature without agitation and left for a time until the red coloration in the solution had diminished and the beads had taken on a red color. This time was dependent on drug loading solution concentration and bead size.
# The extent of drug loading was calculated from the residual unloaded drug content determined by UV/visible HPLC with DAD detector at 220 and 254 nm (Agilent 1100 Series). Estimated uptake of Doxorubicin was approximately 90% loading after 25 hours, and approximately 99% loading after 91 hours.
# Sunitinib was loaded to DC Beads® using a procedure similar to that for Example 6. Estimated uptake of Sunitinib was approximately 99% after 6 hours and >99.8% after 24 hours at room temperature.
# [6] = after a 24 hour period; previous observations; cited from earlier work
# [7] = Fraction I (solvent-final), time 320 minutes
SMILES,amount loaded [1] [mg],"% eluted ([2]; Fraction B, time 40 minutes) [%]","Cumulative elution % ([2]; Fraction B, time 40 minutes) [%]","amount eluted ([2]; Fraction B, time 40 minutes) [mg]","% eluted ([2]; Fraction C, time 80 minutes) [%]","Cumulative elution % ([2]; Fraction C, time 80 minutes) [%]","amount eluted ([2]; Fraction C, time 80 minutes) [mg]","% eluted ([2]; Fraction D, time 120 minutes) [%]","Cumulative elution % ([2]; Fraction D, time 120 minutes) [%]","amount eluted ([2]; Fraction D, time 120 minutes) [mg]","% eluted ([2]; Fraction E, time 160 minutes) [%]","Cumulative elution % ([2]; Fraction E, time 160 minutes) [%]","amount eluted ([2]; Fraction E, time 160 minutes) [mg]","% eluted ([2]; Fraction F, time 200 minutes) [%]","Cumulative elution % ([2]; Fraction F, time 200 minutes) [%]","amount eluted ([2]; Fraction F, time 200 minutes) [mg]","% eluted ([2]; Fraction G, time 240 minutes) [%]","Cumulative elution % ([2]; Fraction G, time 240 minutes) [%]","amount eluted ([2]; Fraction G, time 240 minutes) [mg]","% eluted ([2]; Fraction H, time 280 minutes) [%]",other results
"CNC(=O)c1cc(Oc2ccc(NC(=O)Nc3ccc(Cl)c(C(F)(F)F)c3)cc2)ccn1 [Sorafenib, 4-{4-[3-(4-chloro-3-trifluoro-phenyl)-ureido]-phenoxyl}-pyridine-2-carboxylic methylamine]",4.7229,65.4259,65.4259,3.09,10.6714,76.0973,0.504,0.6479,76.7452,0.0306,0.6924,77.4376,0.0327,0.1912,77.6287,0.00903,0.1188,77.7475,0.00561,0.00648,"loading on DC Beads ([1]; equilibrium after approximately 46 hours): approximately 52%; Cumulative elution % ([2]; Fraction H, time 280 minutes): 77.754%; amount eluted ([2]; Fraction H, time 280 minutes): 0.000306 mg; % eluted [2, 7]: 4.9292%; Cumulative elution % [2, 7]: 82.68%; amount eluted [2, 7]: 0.2328 mg; Remaining drug to be eluted [2]: 0.8179 mg; concentration released in smaller increments thereafter ([2]; after initial release): 0.2 µM; drug remained on the beads ([2]; after the last elution time point): Approximately 17%; concentration released initially ([2]; initial release from beads): 4 to 20 µM; fraction of loaded drug eluted ([2]; over 40 minutes): approximately 2%; mean t½ [3]: 27.4 h; Cmax ([3]; read-out: Cmax in plasma): ~11.6 µM; solubility in alcohol ([4]; alcohol): slightly soluble; solubility in polyethylene glycol 400 ([4]; polyethylene glycol 400): fully soluble; water solubility [4]: mostly insoluble; also recorded: very poor"
CNC(=O)c1cc(Oc2ccc(NC(=O)Nc3ccc(Cl)c(C(F)(F)F)c3)c(F)c2)ccn1 [Regorafenib],2.1931,68.3963,68.3963,1.5,2.3255,70.7218,0.051,0.0109,70.7327,0.00024,0.00286,70.7356,0.0000628,0.0017,70.7373,0.0000372,0.0017,70.739,0.0000364,0.0049,"loading on DC Beads ([1]; equilibrium after approximately 92 hours): approximately 25%; Cumulative elution % ([2]; Fraction H, time 280 minutes): 70.7439%; amount eluted ([2]; Fraction H, time 280 minutes): 0.000108 mg; % eluted [2, 7]: 3.5384%; Cumulative elution % [2, 7]: 74.2823%; amount eluted [2, 7]: 0.0776 mg; Remaining drug to be eluted [2]: 0.5723 mg; water solubility [4]: poor"
COc1cccc2c1C(=O)c1c(O)c3c(c(O)c1C2=O)C[C@@](O)(C(=O)CO)C[C@@H]3O[C@H]1C[C@H](N)[C@H](O)[C@H](C)O1 [Doxorubicin],,,,,,,,,,,,,,,,,,,,,Estimated uptake (loading) on DC Beads ([5]; after 25 hours): approximately 90%; Estimated uptake (loading) on DC Beads ([5]; after 91 hours): approximately 99%; fraction of drug eluted [6]: about 4%
